Experimental data reported in publication PMC10006169, “A phase I trial of LXS196, a protein kinase C (PKC) inhibitor, for metastatic uveal melanoma” (British Journal of Cancer, 2023).
Values joined by “and” are separate entries in the source; they are usually repeats but may differ in a detail not shown here. Identical values can stand only once.

Tested on: patients with MUM
Assay: Adverse events regardless of study drug relationship
Format: in vivo, human
Experimental: Routine safety assessments, including laboratory assessments, physical examinations, vital signs and electrocardiograms (ECGs), were conducted at regular intervals throughout the study and more frequently as needed following patient assessment by the treating physician. Adverse events (AEs) were assessed continuously according to the National Cancer Institute Common Terminology Criteria for Adverse Events (NCI-CTCAE) v4.03.

`CC1(N)CCN(c2cccnc2NC(=O)c2nc(-c3ncccc3C(F)(F)F)cnc2N)CC1` [LXS196] was tested, and the “ALT increased, all grades” value (All BID) was 9 (30.0) n (%), the “ALT increased, grade ≥3” value (All BID) was 2 (6.7) n (%) and the “AST increased, all grades” value (All BID) was 8 (26.7) n (%). The “AST increased, grade ≥3” value (All BID) was 3 (10.0) n (%), the “Abdominal pain upper, all grades” value (All BID) was 3 (10.0) n (%) and the “Abdominal pain upper, grade ≥3” value (All BID) was 0 n (%). For the same molecule, the “Asthenia, all grades” value (All BID) was 7 (23.3) n (%), the “Asthenia, grade ≥3” value (All BID) was 0 n (%) and the “Blood creatinine increased, all grades” value (All BID) was 5 (16.7) n (%). The “Blood creatinine increased, grade ≥3” value (All BID) was 0 n (%), the “Constipation, all grades” value (All BID) was 7 (23.3) n (%) and the “Constipation, grade ≥3” value (All BID) was 0 n (%). The “Decreased appetite, all grades” value (All BID) was 5 (16.7) n (%), the “Decreased appetite, grade ≥3” value (All BID) was 0 n (%) and the “Dermatitis acneiform, all grades” value (All BID) was 5 (16.7) n (%). For the same molecule, the “Dermatitis acneiform, grade ≥3” value (All BID) was 0 n (%), the “Diarrhoea, all grades” value (All BID) was 17 (56.7) n (%) and the “Diarrhoea, grade ≥3” value (All BID) was 1 (3.3) n (%). The “Dry skin, all grades” value (All BID) was 6 (20.0) n (%), the “Dry skin, grade ≥3” value (All BID) was 0 n (%) and the “Fatigue, all grades” value (All BID) was 7 (23.3) n (%). For the same molecule, the “Fatigue, grade ≥3” value (All BID) was 0 n (%), the “Hypotension, all grades” value (All BID) was 7 (23.3) n (%) and the “Hypotension, grade ≥3” value (All BID) was 1 (3.3) n (%). The “Nasopharyngitis, all grades” value (All BID) was 3 (10.0) n (%), the “Nasopharyngitis, grade ≥3” value (All BID) was 0 n (%) and the “Nausea, all grades” value (All BID) was 21 (70.0) n (%). For the same molecule, the “Nausea, grade ≥3” value (All BID) was 0 n (%), the “Neutropenia, all grades” value (All BID) was 2 (6.7) n (%) and the “Neutropenia, grade ≥3” value (All BID) was 0 n (%). For the same molecule, the “Oedema peripheral, all grades” value (All BID) was 8 (26.7) n (%), the “Oedema peripheral, grade ≥3” value (All BID) was 1 (3.3) n (%) and the “Patients with ≥1 AE, all grades” value (All BID) was 30 (100) n (%). For the same molecule, the “Patients with ≥1 AE, grade ≥3” value (All BID) was 15 (50.0) n (%), the “Rash, all grades” value (All BID) was 6 (20.0) n (%) and the “Rash, grade ≥3” value (All BID) was 0 n (%). The “Vomiting, all grades” value (All BID) was 11 (36.7) n (%), the “Vomiting, grade ≥3” value (All BID) was 0 n (%) and the “ALT increased, all grades” value (All QD) was 9 (23.7) n (%). The “ALT increased, grade ≥3” value (All QD) was 2 (5.3) n (%), the “AST increased, all grades” value (All QD) was 5 (13.2) n (%) and the “AST increased, grade ≥3” value (All QD) was 2 (5.3) n (%). The “Abdominal pain upper, all grades” value (All QD) was 4 (10.5) n (%), the “Abdominal pain upper, grade ≥3” value (All QD) was 0 n (%) and the “Asthenia, all grades” value (All QD) was 8 (21.1) n (%). The “Asthenia, grade ≥3” value (All QD) was 0 n (%), the “Blood creatinine increased, all grades” value (All QD) was 3 (7.9) n (%) and the “Blood creatinine increased, grade ≥3” value (All QD) was 0 n (%). The “Constipation, all grades” value (All QD) was 10 (26.3) n (%), the “Constipation, grade ≥3” value (All QD) was 0 n (%) and the “Decreased appetite, all grades” value (All QD) was 5 (13.2) n (%). For the same molecule, the “Decreased appetite, grade ≥3” value (All QD) was 0 n (%), the “Dermatitis acneiform, all grades” value (All QD) was 2 (5.3) n (%) and the “Dermatitis acneiform, grade ≥3” value (All QD) was 0 n (%). The “Diarrhoea, all grades” value (All QD) was 20 (52.6) n (%), the “Diarrhoea, grade ≥3” value (All QD) was 0 n (%) and the “Dry skin, all grades” value (All QD) was 3 (7.9) n (%). The “Dry skin, grade ≥3” value (All QD) was 0 n (%), the “Fatigue, all grades” value (All QD) was 12 (31.6) n (%) and the “Fatigue, grade ≥3” value (All QD) was 0 n (%). For the same molecule, the “Hypotension, all grades” value (All QD) was 8 (21.1) n (%), the “Hypotension, grade ≥3” value (All QD) was 5 (13.2) n (%) and the “Nasopharyngitis, all grades” value (All QD) was 4 (10.5) n (%). For the same molecule, the “Nasopharyngitis, grade ≥3” value (All QD) was 0 n (%), the “Nausea, all grades” value (All QD) was 27 (71.1) n (%) and the “Nausea, grade ≥3” value (All QD) was 1 (2.6) n (%). The “Neutropenia, all grades” value (All QD) was 5 (13.2) n (%), the “Neutropenia, grade ≥3” value (All QD) was 2 (5.3) n (%) and the “Oedema peripheral, all grades” value (All QD) was 5 (13.2) n (%). The “Oedema peripheral, grade ≥3” value (All QD) was 0 n (%), the “Patients with ≥1 AE, all grades” value (All QD) was 36 (94.7) n (%) and the “Patients with ≥1 AE, grade ≥3” value (All QD) was 14 (36.8) n (%). The “Rash, all grades” value (All QD) was 4 (10.5) n (%), the “Rash, grade ≥3” value (All QD) was 0 n (%) and the “Vomiting, all grades” value (All QD) was 15 (39.5) n (%). For the same molecule, the “Vomiting, grade ≥3” value (All QD) was 1 (2.6) n (%), the “ALT increased, all grades” value (All patients) was 18 (26.5) n (%) and the “ALT increased, grade ≥3” value (All patients) was 4 (5.9) n (%). For the same molecule, the “AST increased, all grades” value (All patients) was 13 (19.1) n (%), the “AST increased, grade ≥3” value (All patients) was 5 (7.4) n (%) and the “Abdominal pain upper, all grades” value (All patients) was 7 (10.3) n (%). For the same molecule, the “Abdominal pain upper, grade ≥3” value (All patients) was 0 n (%), the “Asthenia, all grades” value (All patients) was 15 (22.1) n (%) and the “Asthenia, grade ≥3” value (All patients) was 0 n (%). The “Blood creatinine increased, all grades” value (All patients) was 8 (11.8) n (%), the “Blood creatinine increased, grade ≥3” value (All patients) was 0 n (%) and the “Constipation, all grades” value (All patients) was 17 (25.0) n (%). For the same molecule, the “Constipation, grade ≥3” value (All patients) was 0 n (%), the “Decreased appetite, all grades” value (All patients) was 10 (14.7) n (%) and the “Decreased appetite, grade ≥3” value (All patients) was 0 n (%). For the same molecule, the “Dermatitis acneiform, all grades” value (All patients) was 7 (10.3) n (%), the “Dermatitis acneiform, grade ≥3” value (All patients) was 0 n (%) and the “Diarrhoea, all grades” value (All patients) was 37 (54.4) n (%). For the same molecule, the “Diarrhoea, grade ≥3” value (All patients) was 1 (1.5) n (%), the “Dry skin, all grades” value (All patients) was 9 (13.2) n (%) and the “Dry skin, grade ≥3” value (All patients) was 0 n (%). The “Fatigue, all grades” value (All patients) was 19 (27.9) n (%), the “Fatigue, grade ≥3” value (All patients) was 0 n (%) and the “Hypotension, all grades” value (All patients) was 15 (22.1) n (%). The “Hypotension, grade ≥3” value (All patients) was 6 (8.8) n (%), the “Nasopharyngitis, all grades” value (All patients) was 7 (10.3) n (%) and the “Nasopharyngitis, grade ≥3” value (All patients) was 0 n (%). The “Nausea, all grades” value (All patients) was 48 (70.6) n (%), the “Nausea, grade ≥3” value (All patients) was 1 (1.5) n (%) and the “Neutropenia, all grades” value (All patients) was 7 (10.3) n (%). For the same molecule, the “Neutropenia, grade ≥3” value (All patients) was 2 (2.9) n (%), the “Oedema peripheral, all grades” value (All patients) was 13 (19.1) n (%) and the “Oedema peripheral, grade ≥3” value (All patients) was 1 (1.5) n (%). For the same molecule, the “Patients with ≥1 AE, all grades” value (All patients) was 66 (97.1) n (%), the “Patients with ≥1 AE, grade ≥3” value (All patients) was 29 (42.6%) n (%) and 29 (42.6) n (%) and the “Rash, all grades” value (All patients) was 10 (14.7) n (%). The “Rash, grade ≥3” value (All patients) was 0 n (%), the “Vomiting, all grades” value (All patients) was 26 (38.2) n (%) and the “Vomiting, grade ≥3” value (All patients) was 1 (1.5) n (%). The “AE leading to discontinuation of LXS196” value (SAE grade 3/4, one patient, BID schedule) was “hepatic failure”.
